Results as given in publication PMC8141582, “Synergistic Effect of Statins and Abiraterone Acetate on the Growth Inhibition of Neuroblastoma via Targeting Androgen Receptor” (Frontiers in Oncology, 2021).

Tests used:
[1] = tested on: NB cells; parameters: method as in PMID 28326012; settings: cited from earlier work; for proliferation, migration, invasion, and sphere formation of NB cells: AR antagonists, hormone-free medium
[2] = tested on: SH-SY5Y xenografts; experiment: SH-SY5Y tumor xenograft study; assay type: in vivo, BALB/c nude mice; settings: AA 150 mg/kg, oral daily
Source text: Four weeks old BALB/c nude mice of both sexes were purchased from Vital River Laboratory Animal Technology Co., Ltd. (Beijing, China) and maintained under specific pathogen-free conditions. Male mice were castrated 5 days before cell inoculation. […] Then, all the mice were divided randomly into four groups: control group (Placebo, n = 7), simvastatin group (Sim, n = 6), abiraterone acetate group (AA, n = 6), and combination group (Com, n = 6) including three male mice in each group. […] AA 150 mg/kg/day; combined simvastatin 10 mg/kg/day with AA 75 mg/kg/day. Tumor was harvested after 10 days of dosing, then fixed half of a tumor in 4% buffered formaldehyde for IHC and the other half was stored −80°C for RT-PCR and Western Blots analysis.

[3] = tested on: MDA-MB-453 cells; parameters: method as in Supplement [31]; key: Positive: Abiraterone acetate alone inhibited the progression of cancer; Negative: Abiraterone acetate could not inhibit the progression of cancer; settings: Breast Cancer, 285.7 mg/kg/day, oral; ref Supplement [31]; cited from earlier work
[4] = tested on: SH-SY5Y cells; experiment: MTT cell viability assay, SH-SY5Y; assay type: cell-based; settings: Homo sapiens, NB cell line, 72 h
Protocol: (§1) N2a, SH-SY5Y, SK-N-BE (2), 10A, HUVEC, HL7702 cells were plated in 96-well plates at 8,000 cells/well, respectively, in complete media in triplicate wells for each dose and cultured for 18 h. The neuroblastoma cell lines, N2a, SH-SY5Y, and SK-N-BE (2), and non-cancer cell lines, 10A, HUVEC, and HL7702, were treated with simvastatin and fluvastatin in a range of doses from 0 to 20 μM and with AA from 0 to 30 μM; N2a, SH-SY5Y SK-N-BE (2), were treated with rosuvastatin in a range of doses from 0 to 100 μM for 72 h. Statins dissolved in DMSO and AA dissolved in ethanol. After 72 h treatment, the medium was added 0.5 mg/ml MTT reagent and incubated at 37°C for 4 h. Subsequently, the supernatant was aspirated, and cells were lysed in 150 µl DMSO, then shaken 10 min at 37°C. The optical density (OD) was measured at 570 and 630 nm using a plate reader.

[5] = tested on: Caki2 cells; parameters: method as in Supplement [32]; key: Positive: Abiraterone acetate alone inhibited the progression of cancer; Negative: Abiraterone acetate could not inhibit the progression of cancer; settings: Renal Cell Carcinoma, 195.8 mg/kg/day, i.p.; ref Supplement [32]; cited from earlier work
[6] = tested on: HL7702 cells; experiment: MTT cell viability assay, HL7702; assay type: cell-based; settings: Homo sapiens, L02, normal cell line, 72 h
Protocol: (§2) Statins dissolved in DMSO and AA dissolved in ethanol. After 72 h treatment, the medium was added 0.5 mg/ml MTT reagent and incubated at 37°C for 4 h. Subsequently, the supernatant was aspirated, and cells were lysed in 150 µl DMSO, then shaken 10 min at 37°C. The optical density (OD) was measured at 570 and 630 nm using a plate reader.

[7] = tested on: 10A cells; experiment: MTT cell viability assay, 10A; assay type: cell-based; settings: Homo sapiens, normal cell line, 72 h
Protocol: as §2

[8] = tested on: PC-3 cells; parameters: key to Results (abiraterone acetate alone): Positive: Abiraterone acetate alone inhibited the progression of cancer; Negative: Abiraterone acetate could not inhibit the progression of cancer; settings: Prostate Cancer, 98.0 mg/kg/day, oral; ref Supplement [28]; cited from earlier work
[9] = tested on: SK-N-BE (2) cells; experiment: MTT cell viability assay, SK-N-BE (2); assay type: cell-based; settings: Homo sapiens, SKNBE2, NB cell line, 72 h
Protocol: as §1

[10] = tested on: 22RV1 cells; parameters: key to Results (abiraterone acetate alone): Positive: Abiraterone acetate alone inhibited the progression of cancer; Negative: Abiraterone acetate could not inhibit the progression of cancer; settings: Prostate Cancer, 200.0 mg/kg, oral; ref Supplement [29]; cited from earlier work
[11] = tested on: N2a cells; experiment: MTT cell viability assay, N2a; assay type: cell-based, mouse; settings: for IC50: Mus musculus, N2a, NB cell line, MTT, 72 h
Protocol: as §1

[12] = tested on: HUVEC cells; experiment: MTT cell viability assay, HUVEC; assay type: cell-based; settings: Homo sapiens, normal cell line, 72 h
Protocol: as §2

[13] = tested on: LNCaP cells; parameters: method as in Supplement [30]; key: Positive: Abiraterone acetate alone inhibited the progression of cancer; Negative: Abiraterone acetate could not inhibit the progression of cancer; settings: Prostate Cancer, 3.5 mg/kg/day, i.p.; ref Supplement [30]; cited from earlier work

SMILES | proliferation, migration, invasion, and sphere formation of NB cells [1] | IC50 [4] | IC50 [6] | IC50 [7] | IC50 [9] | IC50 [11] | IC50 [12] | other results
CNC(=O)c1ccc(N2C(=S)N(c3cnc(C#N)c(C(F)(F)F)c3)C(=O)C23CCC3)cc1F [ARN509] | significantly decreased |  |  |  |  |  |  | 
CC(=O)O[C@H]1CC[C@@]2(C)C(=CC[C@@H]3[C@@H]2CC[C@]2(C)C(c4cccnc4)=CC[C@@H]32)C1 [Abiraterone acetate] |  | 2.72 µM | 5.31 µM | 5.2 µM | 9.86 µM | 4.32 µM | 22.6 µM | tumor growth [2]: tumor growth delay; Results (abiraterone acetate alone) [3]: Negative; Results (abiraterone acetate alone) [5]: Positive; Results (abiraterone acetate alone) [8]: Positive; Results (abiraterone acetate alone) [10]: Negative; inhibition rate ([11]; N2a cells, 2.5 μM AA): ~20%; Results (abiraterone acetate alone) [13]: Positive
CC(C)n1c(/C=C/C(O)CC(O)CC(=O)O)c(-c2ccc(F)cc2)c2ccccc21 (stereo not shown) [Fluvastatin] |  | 6 µM | 29.7 µM | 13.3 µM | 8.41 µM | 5.09 µM | 8.96 µM | 
CNC(=O)c1ccc(N2C(=S)N(c3ccc(C#N)c(C(F)(F)F)c3)C(=O)C2(C)C)cc1F [MDV3100] | significantly decreased |  |  |  |  |  |  | 
C[C@]1(O)CC[C@H]2[C@@H]3CCC4=CC(=O)CCC4=C3C=C[C@@]21C [R1881] |  |  |  |  |  |  |  | growth of NB ([1]; AR agonist, in vitro and in vivo): promoted the growth of NB in vitro and in vivo
CC(C)c1nc(N(C)S(C)(=O)=O)nc(-c2ccc(F)cc2)c1/C=C/[C@@H](O)C[C@@H](O)CC(=O)O [Rosuvastatin] |  | > 100 µM |  |  | 67.6 µM | 68.4 µM |  | 
